PMC7937321 (Genes and Environment, 2021)

Key:
[1] = tested on: human lymphoblastoid TK6 cells, thymidine kinase gene; experiment: TK gene mutation assay (TK6 assay, OECD TG490); conditions: for MF: graph data
Method: In principle, this collaborative study conducted the treatment of test substances, the dose finding, and the main test of TK6 assays, according to the OECD Guideline TG490 [17]. […] Briefly, test substances were dissolved in an appropriate solvent (DMSO or ethanol) and then serially diluted to prepare final concentrations. […] The 4 h and 24 h treatments were conducted by shaking and static exposures, respectively. After treatment with test substances, cells were centrifuged (1000 rpm, 5 min), supernatants were removed, and cells were washed with a serum-free medium or Hank’s Balanced Salt Solution. After centrifugation (1000 rpm, 5 min) to remove the supernatant, cells (2 × 10^7 cells) were dispersed in an RPMI medium containing 10% serum, and cell concentration was measured. Treated cells were cultured at 37 °C with 5% CO2 condition and used for TK6 assays. At that time, to calculate the cloning efficiency (CE) (Eq. 1), the cells were cultured in a 96-well microplate at a concentration of about 1.6 cells/well for 2 weeks.
The TK6 assay is conducted between 20 and 10% RS0 as a maximum dose if cytotoxicity is observed. If no precipitate or limiting cytotoxicity was observed, the maximum dose was the lowest concentration among 10 mM, 2 mg/mL, or 2 μL/mL of the test substance. When the main TK6 assay was difficult to conduct under the condition of RS0 values from 20 to 10%, the test was conducted between 20 and 10% relative total growth (RTG), described later, as a maximum dose.
On the third day of culture, CE3 plates for determining plating efficiency and mutant frequency (MF) plates for mutation detection were prepared. CE3 plates were seeded in 96-well microplates at a concentration of about 1.6 cells/well. The MF plates were seeded in 96-well microplates at 40,000 cells/well in the presence of 3 μg/mL of trifluorothymidine (Sigma Aldrich).
Mutant colonies in MF plates were calculated using Eq. 7 using the Poisson distribution. EW was the number of wells without colonies, and TW was the total number of wells. N was the average number of cells per well (N = 40,000 in this study). The data were statistically analyzed by Omori’s method, a modified Dunnett’s procedure for identifying clear negatives, a Simpson–Margolin procedure for detecting downturn data, and a trend test to evaluate the dose dependency [42, 43]. The acceptability criterion for the test was that the MF value of the positive control group of each laboratory was increased with statistical significance compared with that of the concurrent negative control group.

[2] = tested on: L5178Y mouse lymphoma cells; conditions: ref [27], [46]-[53], Table 3, cited from earlier work
[3] = 24 h treatment, -S9 mix, 173.70 μg/mL
[4] = 24 h treatment, -S9 mix, 277.90 μg/mL
[5] = 24 h treatment, -S9 mix, 444.70 μg/mL
[6] = 24 h treatment, -S9 mix, 711.5 μg/mL
[7] = 24 h treatment, -S9 mix, 1138.4 μg/mL
[8] = 24 h treatment, -S9 mix, 1821.4 μg/mL
[9] = Long-term treatment without metabolic activation
[10] = Short treatment, +S9 mix, dose 173.7 μg/mL
[11] = Short treatment, +S9 mix, dose 277.9 μg/mL
[12] = Short treatment, +S9 mix, dose 445 μg/mL
[13] = Short treatment, +S9 mix, dose 712 μg/mL
[14] = Short treatment, +S9 mix, dose 1138 μg/mL
[15] = Short treatment, +S9 mix, dose 1821 μg/mL
[16] = Short treatment, -S9 mix, dose 173.70 μg/mL
[17] = Short treatment, -S9 mix, dose 277.90 μg/mL
[18] = Short treatment, -S9 mix, dose 444.70 μg/mL
[19] = Short treatment, -S9 mix, dose 711.5 μg/mL
[20] = Short treatment, -S9 mix, dose 1138.4 μg/mL
[21] = Short treatment, -S9 mix, dose 1821.4 μg/mL

Nc1cc([N+](=O)[O-])ccc1C(=O)O [4-Nitroanthranilic acid]
TK6 assay result (mutant frequency increase, judgment) ([1]; 4h treatment (+S9)): no increase in mutation frequency
TK6 assay result (mutant frequency increase, judgment) ([1]; 4h treatment (+S9), listed as 4-nitroanthranilic acid): negative
TK6 assay result (mutant frequency increase, judgment) ([1]; 4h treatment (-S9)): no increase in mutation frequency
TK6 assay result (mutant frequency increase, judgment) ([1]; 4h treatment (-S9), listed as 4-nitroanthranilic acid): negative
TK mutation assay, Long term ([1]; 24 h, without S9): Pos
TK6 assay result (mutant frequency increase, judgment) ([1]; 24h treatment (-S9)): statistically significant increase in mutation frequency
TK6 assay result (mutant frequency increase, judgment) ([1]; 24h treatment (-S9), listed as 4-nitroanthranilic acid): positive
%SG [1, 3]: 68.7%
Mut. freq. (×10-6) N-MF [1, 3]: 1.8 ×10-6
Mut. freq. (×10-6) S-MF [1, 3]: 3.9 ×10-6
Mut. freq. (×10-6) T-MF [1, 3]: 5.6 ×10-6
%SG [1, 4]: 61.0%
Mut. freq. (×10-6) N-MF [1, 4]: 3.1 ×10-6
Mut. freq. (×10-6) S-MF [1, 4]: 4.8 ×10-6
Mut. freq. (×10-6) T-MF [1, 4]: 7.9 ×10-6
%SG [1, 5]: 63.1%
Mut. freq. (×10-6) N-MF [1, 5]: 2.6 ×10-6
Mut. freq. (×10-6) S-MF [1, 5]: 4.4 ×10-6
Mut. freq. (×10-6) T-MF [1, 5]: 7.0 ×10-6
%SG [1, 6]: 72.4%
Mut. freq. (×10-6) N-MF [1, 6]: 3.0 ×10-6
Mut. freq. (×10-6) S-MF [1, 6]: 7.8 ×10-6
Mut. freq. (×10-6) T-MF [1, 6]: 10.7 ×10-6
%SG [1, 7]: 57.1%
Mut. freq. (×10-6) N-MF [1, 7]: 4.1 ×10-6
Mut. freq. (×10-6) S-MF [1, 7]: 5.5 ×10-6
Mut. freq. (×10-6) T-MF [1, 7]: 9.7 ×10-6
%SG [1, 8]: 68.5%
Mut. freq. (×10-6) N-MF [1, 8]: 4.4 ×10-6
Mut. freq. (×10-6) S-MF [1, 8]: 9.5 ×10-6
Mut. freq. (×10-6) T-MF [1, 8]: 13.9 ×10-6
Dunnett type test, test statistic [1, 9]: 2.990
Trend test, test statistic [1, 9]: 4.178
%SG [1, 10]: 38.9%
Mut. freq. (×10-6) N-MF [1, 10]: 6.7 ×10-6
Mut. freq. (×10-6) S-MF [1, 10]: 4.3 ×10-6
Mut. freq. (×10-6) T-MF [1, 10]: 10.9 ×10-6
%SG [1, 11]: 40.2%
Mut. freq. (×10-6) N-MF [1, 11]: 6.1 ×10-6
Mut. freq. (×10-6) S-MF [1, 11]: 4.1 ×10-6
Mut. freq. (×10-6) T-MF [1, 11]: 10.3 ×10-6
%SG [1, 12]: 44.7%
Mut. freq. (×10-6) N-MF [1, 12]: 4.6 ×10-6
Mut. freq. (×10-6) S-MF [1, 12]: 3.7 ×10-6
Mut. freq. (×10-6) T-MF [1, 12]: 8.4 ×10-6
%SG [1, 13]: 49.2%
Mut. freq. (×10-6) N-MF [1, 13]: 5.5 ×10-6
Mut. freq. (×10-6) S-MF [1, 13]: 5.3 ×10-6
Mut. freq. (×10-6) T-MF [1, 13]: 10.7 ×10-6
%SG [1, 14]: 37.9%
Mut. freq. (×10-6) N-MF [1, 14]: 6.4 ×10-6
Mut. freq. (×10-6) S-MF [1, 14]: 3.9 ×10-6
Mut. freq. (×10-6) T-MF [1, 14]: 10.3 ×10-6
%SG [1, 15]: 43.4%
Mut. freq. (×10-6) N-MF [1, 15]: 6.4 ×10-6
Mut. freq. (×10-6) S-MF [1, 15]: 4.9 ×10-6
Mut. freq. (×10-6) T-MF [1, 15]: 11.3 ×10-6
%SG [1, 16]: 60.5%
Mut. freq. (×10-6) N-MF [1, 16]: 3.6 ×10-6
Mut. freq. (×10-6) S-MF [1, 16]: 5.5 ×10-6
Mut. freq. (×10-6) T-MF [1, 16]: 9.0 ×10-6
%SG [1, 17]: 56.6%
Mut. freq. (×10-6) N-MF [1, 17]: 3.8 ×10-6
Mut. freq. (×10-6) S-MF [1, 17]: 4.9 ×10-6
Mut. freq. (×10-6) T-MF [1, 17]: 8.7 ×10-6
%SG [1, 18]: 46.7%
Mut. freq. (×10-6) N-MF [1, 18]: 4.2 ×10-6
Mut. freq. (×10-6) S-MF [1, 18]: 3.7 ×10-6
Mut. freq. (×10-6) T-MF [1, 18]: 7.9 ×10-6
%SG [1, 19]: 48.9%
Mut. freq. (×10-6) N-MF [1, 19]: 4.3 ×10-6
Mut. freq. (×10-6) S-MF [1, 19]: 4.2 ×10-6
Mut. freq. (×10-6) T-MF [1, 19]: 8.5 ×10-6
%SG [1, 20]: 52.7%
Mut. freq. (×10-6) N-MF [1, 20]: 3.7 ×10-6
Mut. freq. (×10-6) S-MF [1, 20]: 4.1 ×10-6
Mut. freq. (×10-6) T-MF [1, 20]: 7.8 ×10-6
%SG [1, 21]: 65.9%
Mut. freq. (×10-6) N-MF [1, 21]: 3.0 ×10-6
Mut. freq. (×10-6) S-MF [1, 21]: 5.9 ×10-6
Mut. freq. (×10-6) T-MF [1, 21]: 9.0 ×10-6
Dunnett type test, test statistic ([1]; Short-term treatment with metabolic activation): 0.732
Dunnett type test, test statistic ([1]; Short-term treatment without metabolic activation): 0.791
MF ([1]; 24 h, -S9 mix, 173.70 μg/mL): 5.6
MF ([1]; 24 h, -S9 mix, 277.90 μg/mL): 7.9
MF ([1]; 24 h, -S9 mix, 444.70 μg/mL): 7.0
MF ([1]; 24 h, -S9 mix, 711.5 μg/mL): 10.7
MF ([1]; 24 h, -S9 mix, 1138.4 μg/mL): 9.7
MF ([1]; 24 h, -S9 mix, 1821.4 μg/mL): 13.9
MF [1, 10]: 10.9
MF [1, 11]: 10.3
MF ([1]; Short treatment, +S9 mix, dose 444.7 μg/mL): 8.4
MF ([1]; Short treatment, +S9 mix, dose 711.5 μg/mL): 10.7
MF ([1]; Short treatment, +S9 mix, dose 1138.4 μg/mL): 10.3
MF ([1]; Short treatment, +S9 mix, dose 1821.4 μg/mL): 11.3
MF [1, 16]: 9.0
MF [1, 17]: 8.7
MF [1, 18]: 7.9
MF [1, 19]: 8.5
MF [1, 20]: 7.8
MF [1, 21]: 9.0
TK mutation assay, With S9 ([1]; short-term 4 h, with rat liver S9): Neg
TK mutation assay, Without S9 ([1]; short-term 4 h, without S9): Neg
MLA (TK gene locus), With S9 ([2]; with S9): Pos
MLA (TK gene locus), Without S9 ([2]; without S9): Equivocal^d
